# Measurements: US12508262B2, “Methods of using ALK2 inhibitors” (Keros Therapeutics, Inc., priority 2020, dated 2025)
# What was measured:
# [1] = test system: healthy volunteers; assay: Phase 1 single- and multiple-ascending dose study, pharmacodynamic endpoints (serum iron, transferrin saturation, ferritin, hepcidin, reticulocyte hemoglobin, cholesterol); assay type: in vivo, human; settings: for transferrin saturation, mean percent change from baseline / serum iron, mean change from baseline: Day 4, multiple ascending doses; for transferrin saturation, mean percent change from baseline: placebo 0.3%; for serum iron, mean change from baseline: placebo 1.4
# From the text: (§1) The primary objectives of this study were to a) evaluate safety and tolerability of escalating doses of the compound of Formula I-11 administered as single and multiple oral doses in healthy male volunteers and healthy postmenopausal female volunteers and b) evaluate the PK parameters following escalating doses of the compound of Formula I-11 administered as single and multiple oral doses. The secondary objective of this study was to evaluate the pharmacodynamic (PD) parameters following escalating doses of the compound of Formula I-11 administered as single and multiple oral doses. This study was conducted in two parts.
# (§2) Participants in Part 1 received a single oral dose of the compound of Formula I-11 or placebo on Day 1 and serial PK samples were collected. Baseline assessments were performed on day −1 prior to dosing. Samples were collected for determination of pharmacodynamic parameters at pre-dose daily and up to 24 hours post dose (day 2) after a single oral dose of the compound of Formula I-11. Participants remained at the study site for observation for 24 hours post-dose through the PK sample collection on Day 2. Participants returned to the site for the 48, 72, and 120-hour post-dose sample collection on Days 3, 4, and 6. Safety was evaluated by a Safety Review Committee prior to escalation to the next dose level cohort.
# (§3) Participants in Part 2, Cohorts 1 through 3, received a daily oral dose of the compound of Formula I-11 (50, 100, or 200 mg liquid formulation respectively) or placebo for 7 days. A daily oral dose of the compound of Formula I-11 or placebo in participants in Part 2, Cohort 4 (350 mg liquid formulation) was planned for 14 days but was discontinued early in all subjects, either by the Investigator because of AEs, or by the Sponsor. A decision was made by the Sponsor to discontinue dosing of the entire cohort based on the frequency of AEs and laboratory abnormalities after Day 9. In Cohort 4, participants on the compound of Formula I-11 received daily oral dosing of 350 mg for up to 7 days; one placebo participant received daily oral dosing for 9 days. Samples were collected for determination of pharmacodynamic parameters at pre-dose daily and to 24 hours post dose (day 8) while on drug. Daily trough PK samples were collected for the determination of steady-state from Day 2 to Day 12 or 13. Participants returned to the site on Day 30 for an end-of-study visit. Safety was evaluated by a Safety Review Committee prior to escalation to the next dose level cohort.
# Part 2, MAD Cohort 5 (C5) participants received either the compound of Formula I-11, 100 mg (n=8) or placebo (n=2) on Days 1, 2, 3, 4, 5, 6, 7. The last dose was administered on the morning of Day 7. Serial PK sample collection for the determination of steady-state concentrations of the compound of Formula I-11 was done at pre-dose and up to 24 hours post-dose, beginning on Day 1, 4 and 7. Participants returned for follow-up visits on […], and Day 30 for an end-of-study visit.
# Pharmacodynamic endpoints: Protocol-specified endpoints were assessed at baseline and regularly throughout the study period. These assessments included measurements of serum iron, transferrin saturation (calculated as serum iron/total iron-binding capacity), serum ferritin, serum hepcidin, and reticulocyte hemoglobin content, serum cholesterol, LDL, and HDL cholesterol. Measurements of all pharmacodynamic end points were made using standard clinical laboratory tests. Hepcidin analysis was performed using an ELISA kit from Intrinsic LifeSciences (Intrinsic Hepcidin IDx™ ELISA kit).
# [2] = Phase 1 single- and multiple-ascending dose study, PK parameters; assay type: in vivo, human
# From the text: as §1
# as §2, with “Participants remained at the study site for observation for 24 hours post-dose through the PK sample collection on Day 2. Participants returned to the site for the 48, 72, and 120-hour post-dose sample collection on Days 3, 4, and 6.” left out
# Participants in Part 2, Cohorts 1 through 3, received a daily oral dose of the compound of Formula I-11 (50, 100, or 200 mg liquid formulation respectively) or placebo for 7 days. […] Safety was evaluated by a Safety Review Committee prior to escalation to the next dose level cohort. […]
# [3] = test system: healthy volunteers; assay: Phase 1 single- and multiple-ascending dose study, safety and tolerability; assay type: in vivo, human
# From the text: A total of 131 healthy, males aged 18 to 60 years and post-menopausal females aged 45 to 60 years, participated in this study.
# as §1
# Part 1 included 80 participants (10 cohorts of 8 participants each). Male and female participants who met the eligibility criteria were randomly assigned, in a ratio of 3:1 to receive the compound of Formula I-11 or matching placebo, N=6 and 2 per dose cohort, respectively. Participant enrollment included […] males and 12.5% females (postmenopausal). The IMP formulation used in Cohorts 1 through 6 was an oral capsule (doses of 1, 3, 10, 30, 100, or 300 mg capsule formulation). An oral liquid formulation was evaluated in Cohorts 7 through 10 (doses of 30, 100, 300 or 450 mg liquid formulation).
# as §2
# Part 2, Cohorts 1 through 4, included 41 participants (4 cohorts of 10 participants each and 1 additional placebo participant in Cohort 1). Male and female participants who met the eligibility criteria were randomly assigned at a ratio of 4:1 to receive either the compound of Formula I-11 oral liquid formulation or matching placebo, N=8 and 2 per dose cohort respectively. Forty (97.6%) males and 1 (2.4%) female (placebo) participant were enrolled.
# as §3
# Part 2, MAD Cohort 5 (C5) participants received either the compound of Formula I-11, 100 mg (n=8) or placebo (n=2) on Days 1, 2, 3, 4, 5, 6, 7. The last dose was administered on the morning of Day 7. […]
# [4] = test system: mouse model of chronic kidney disease (CKD); assay: Adenine-induced mouse model of chronic kidney disease; assay type: in vivo, C57Bl/6 mice
# Protocol: To induce chronic kidney disease (CKD), 6-week-old C57Bl/6 mice were dosed daily via PO administration with 50 mg/kg of adenine or vehicle. After six weeks of adenine administration, a representative group of mice were taken down and tested to confirm anemia. Concomitantly, the remainder of the CKD mice began dosing with either vehicle or the compound of Formula I-42 5 mg/kg PO daily. Mice were dosed with vehicle or the compound of Formula I-42 while still receiving daily adenine for 10 days. The study was terminated at 52 days and hematology (Heska, Element HT-5), serum hepcidin (Intrinsic Biosciences, Hepcidin Murine Compete), and serum iron (Bioassay Systems, QuantiChrom Kit) levels were assessed.
# [5] = test system: mouse model of IRIDA; assay: TMPRSS6 siRNA mouse model of IRIDA; assay type: in vivo, C57BL/6 mice
# Protocol: To establish a murine model of IRIDA, eight-week-old male C57BL/6 mice were dosed intravenously with lipid encapsulated siRNA targeted against either Luciferase (control) or TMPRSS6 (0.75 mg/kg). Following confirmation of disease at day 8 post initial siRNA administration, once-daily oral dosing with the compound of Formula I-42 (5 mg/kg) or vehicle commenced. A second siRNA administration was given on day 10. Studies were terminated 18 days post initial siRNA administration. Hematological parameters, serum iron, and serum hepcidin were measured at the end of the study.
# [6] = fourth dose level (350 mg daily)
# [7] = second dose level (100 mg daily)
# [8] = third dose level (200 mg daily)
# [9] = 5 mg/kg PO daily for 10 days, Day 52
# [10] = 5 mg/kg PO daily, after 10 days
# [11] = 5 mg/kg once-daily oral from day 8, study termination (day 18)
# [12] = 5 mg/kg once-daily oral from day 8, study termination (day 18), with TMPRSS6 siRNA
smiles,measurement,setting,value
COc1cc2c(-c3cnn4cc(N5CCC(N6CCN(C)CC6)CC5)cnc34)ccnc2cc1F [Formula I-11],time to decrease in hepcidin,"[1]; Cohort 5 (100 mg), after administration of the first dose, as early as",4 h
same,"transferrin saturation, mean percent change from baseline",[1]; first dose level (50 mg daily),1.6%
same,"serum iron, mean change from baseline",[1]; first dose level (50 mg daily),1.48 μM/L
same,"transferrin saturation, mean percent change from baseline",[1]; [6],30.1%
same,"serum iron, mean change from baseline",[1]; [6],17.71 μM/L
same,"transferrin saturation, mean percent change from baseline",[1]; [7],1.5%
same,"serum iron, mean change from baseline",[1]; [7],0.59 μM/L
same,"transferrin saturation, mean percent change from baseline",[1]; [8],7.5%
same,"serum iron, mean change from baseline",[1]; [8],5.11 μM/L
same,serum ferritin,[1]; MAD cohort participants,decreases in serum ferritin
same,day of peak increase in reticulocyte hemoglobin content,[1]; MAD cohorts,7 days
same,start of increase in reticulocyte hemoglobin content,"[1]; MAD cohorts 1-4, day post-dosing",4 days
same,"effect on serum ferritin, single vs multiple doses",[1]; SAD and MAD cohorts,observed only after multiple doses
same,time to decrease in total cholesterol,[1]; SAD cohorts,≤ 24 h
same,day of peak serum iron concentrations,"[1]; multiple dose regimen, day of treatment",Day 3 or 4
same,"transferrin saturation, observed PD response",[1]; once-daily doses of 50 mg,not substantially different from placebo
same,serum hepcidin vs placebo,"[1]; once-daily oral over 7 days, effect similar at 50 mg, 100 mg and 200 mg",robust decreases in baseline hepcidin
same,hemoglobin content of reticulocytes,[1]; repeated administration,increases over baseline in the hemoglobin content of reticulocytes
same,serum iron,[1]; single (SAD) or once-daily (MAD) oral administration,"rapid, robust, and sustained dose-related increases in serum iron"
same,"transferrin saturation, observed PD response","[1]; single dose of 30 mg, liquid formulation",not substantially different from placebo
same,time of peak effect on serum iron,"[1]; single dose, Day 2, post-dose",24 h
same,transferrin saturation,[1]; single or repeated doses of 100 mg or above,"sustained, dose-related increases in transferrin saturation"
same,total cholesterol,[1]; single or repeated oral administration (Cohorts 1-4),decreases in total cholesterol
same,half-life,"[2]; both sexes, human, in vivo, oral, healthy participants, approximately",10 to 15 h
same,"Mean AUC and Cmax, dose proportionality",[2]; multiple doses from 50-200 mg,greater than dose-proportional increases
same,"well tolerated dose level, repeated dose","[3]; after 7 daily oral doses, healthy participants",up to 200 mg
same,participants who discontinued the study due to AEs,"[3]; human, in vivo",25%
same,AEs reported in ≥2 subjects and higher than placebo,[3]; in vivo,"headache, nausea, vomiting, diarrhea, gastroenteritis, chills, pyrexia, myalgia, decreased appetite, lymphopenia, neutropenia, abdominal discomfort, abdominal pain (upper), dizziness, fatigue, rhinorrhea, tonsillitis, and liver enzyme increases"
same,AEs that led to study drug discontinuation in three or more participants,[3]; in vivo,lymphopenia and chills
same,onset of lymphopenia (% change in lymphocytes),[3]; in vivo,5 days
same,reversibility of lymphopenia / lymphocyte changes,[3]; in vivo,reversible
same,serious adverse events,[3]; in vivo,no serious adverse events
same,severity of the majority of AEs,[3]; in vivo,mild or moderate in severity
same,subjects who discontinued the study due to AEs,[3]; in vivo,none
same,subjects with increases in ALT >2×ULN,[3]; in vivo,3 subjects
same,development of lymphopenia (lymphocyte counts <1.0×10^9 cells/L),"[3]; in vivo, po",≥ 6 day
same,"well tolerated dose level, single dose","[3]; single oral dose, healthy participants",up to 450 mg
COc1cc2c(-c3cnn4cc(N5CC(N6CCN(C)CC6)C5)cnc34)ccnc2cc1F [Formula I-42],"hematocrit, higher than vehicle-treated mice receiving adenine",[4]; [9],10.2%
same,"hemoglobin, higher than vehicle-treated mice receiving adenine",[4]; [9],10.7%
same,"red blood cell counts, higher than vehicle-treated mice receiving adenine",[4]; [9],7.1%
same,"reticulocyte hemoglobin content, higher than vehicle-treated mice receiving adenine",[4]; [9],10.4%
same,increase in serum iron values vs vehicle treated mice receiving adenine,[4]; [10],108.2%
same,reduction in serum hepcidin values vs vehicle treated mice receiving adenine,[4]; [10],85.4%
same,disease phenotype,[5]; 5 mg/kg once-daily oral,rescued the disease phenotype
same,serum hepcidin vs vehicle-treated mice receiving TMPRSS6 siRNA,[5]; [11],decreased serum hepcidin
same,serum iron vs vehicle-treated mice receiving TMPRSS6 siRNA,[5]; [11],increased serum iron
same,hematocrit vs vehicle-treated mice,[5]; [12],increase
same,hemoglobin levels vs vehicle-treated mice,[5]; [12],increase
same,red blood cell counts vs vehicle-treated mice,[5]; [12],increase
